Results from US20260262643A1, “HERBICIDAL BENZOXAZINES” (FMC CORPORATION, priority 2022, published 2026).

Assays:
soybean [1] = assay: Test A preemergence; format: in vivo, Glycine max; details: visual injury after 10 days, 0 to 100 scale, 0 is no effect, 100 is complete control
In short: (§1)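 Visual injury ratings on a 0–100 scale (100 = complete control) versus untreated controls, taken 10 days after treatment in greenhouse. Preemergence: directed soil spray onto seeded loam/sand. Postemergence: foliar application at one- to two-leaf stage, plants 2–10 cm. Formulation: non-phytotoxic solvent plus surfactant.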

barnyardgrass [2] = assay: Test A postemergence; format: in vivo, Echinochloa crusgalli; details: postemergence, 10 days
From the text: (§2) Seeds of plant species selected from barnyardgrass (Echinochloa crusgalli), blackgrass (Alopecurus myosuroides), corn (Zea mays), foxtail, giant (giant foxtail, Setaria faberi), goosegrass (Eleusine indica), kochia (Bassia scoparia), oat, wild (wild oat, Avena fatua), pigweed, palmer (palmer amaranth, palmer pigweed, Amaranthus palmeri), Pigweed, Redroot (redroot pigweed, Amaranthus retroflexus), ragweed (common ragweed, Ambrosia artemisiifolia), ryegrass, Italian (italian ryegrass, Lolium multiflorum), soybean (Glycine max), and wheat (Triticum aestivum) were planted into a blend of loam soil and sand and treated preemergence with a directed soil spray using test chemicals formulated in a non-phytotoxic solvent mixture which included a surfactant. At the same time, plants selected from these crops and weed species and also galium (catchweed bedstraw, Galium aparine) and horseweed (Erigeron canadensis) were planted in pots containing the same blend of loam soil and sand and treated with postemergence applications of test chemicals formulated in the same manner. Plants ranged in height from 2 to 10 cm and were in the one- to two-leaf stage for the postemergence treatment. Treated plants and untreated controls were maintained in a greenhouse for 10 days, after which time all treated plants were compared to untreated controls and visually evaluated for injury. Plant response ratings, summarized in Table A, are based on a 0 to 100 scale where 0 is no effect and 100 is complete control. A dash (-) response means no test result.

blackgrass [3] = assay: Test A preemergence; format: in vivo, Alopecurus myosuroides; details: visual injury after 10 days, 0 to 100 scale, 0 is no effect, 100 is complete control
In short: as §1

corn [4] = assay: Test A postemergence; format: in vivo, Zea mays; details: postemergence, 10 days
In short: as §1

blackgrass [5] = assay: Test A postemergence; format: in vivo, Alopecurus myosuroides; details: postemergence, 10 days
In short: as §1

oat, wild [6] = assay: Test A postemergence; format: in vivo, Avena fatua; details: postemergence, 10 days
In short: as §1

ragweed [7] = assay: Test A preemergence; format: in vivo, Ambrosia artemisiifolia; details: visual injury after 10 days, 0 to 100 scale, 0 is no effect, 100 is complete control
In short: as §1

kochia [8] = assay: Test A postemergence; format: in vivo, Bassia scoparia; details: postemergence, 10 days
In short: as §1

ryegrass, Italian [9] = assay: Test A postemergence; format: in vivo, Lolium multiflorum; details: postemergence, 10 days
In short: as §1

soybean [10] = assay: Test A postemergence; format: in vivo, Glycine max; details: postemergence, 10 days
In short: as §1

foxtail, giant [11] = assay: Test A preemergence; format: in vivo, Setaria faberi; details: visual injury after 10 days, 0 to 100 scale, 0 is no effect, 100 is complete control
In short: as §1

barnyardgrass [12] = assay: Test A preemergence; format: in vivo, Echinochloa crusgalli; details: visual injury after 10 days, 0 to 100 scale, 0 is no effect, 100 is complete control
From the text: as §2

wheat [13] = assay: Test A preemergence; format: in vivo, Triticum aestivum; details: visual injury after 10 days, 0 to 100 scale, 0 is no effect, 100 is complete control
In short: as §1

foxtail, giant [14] = assay: Test A postemergence; format: in vivo, Setaria faberi; details: postemergence, 10 days
In short: as §1

horseweed = assay: Test A postemergence; format: in vivo, Erigeron canadensis; details: postemergence, 10 days
In short: as §1

pigweed, palmer [15] = assay: Test A postemergence; format: in vivo, Amaranthus palmeri; details: postemergence, 10 days
In short: as §1

ragweed [16] = assay: Test A postemergence; format: in vivo, Ambrosia artemisiifolia; details: postemergence, 10 days
In short: as §1

wheat [17] = assay: Test A postemergence; format: in vivo, Triticum aestivum; details: postemergence, 10 days
In short: as §1

kochia [18] = assay: Test A preemergence; format: in vivo, Bassia scoparia; details: visual injury after 10 days, 0 to 100 scale, 0 is no effect, 100 is complete control
In short: as §1

corn [19] = assay: Test A preemergence; format: in vivo, Zea mays; details: visual injury after 10 days, 0 to 100 scale, 0 is no effect, 100 is complete control
In short: as §1

ryegrass, Italian [20] = assay: Test A preemergence; format: in vivo, Lolium multiflorum; details: visual injury after 10 days, 0 to 100 scale, 0 is no effect, 100 is complete control
In short: as §1

oat, wild [21] = assay: Test A preemergence; format: in vivo, Avena fatua; details: visual injury after 10 days, 0 to 100 scale, 0 is no effect, 100 is complete control
In short: as §1

galium = assay: Test A postemergence; format: in vivo, Galium aparine; details: postemergence, 10 days
In short: as §1

pigweed, palmer [22] = assay: Test A preemergence; format: in vivo, Amaranthus palmeri; details: visual injury after 10 days, 0 to 100 scale, 0 is no effect, 100 is complete control
In short: as §1

[23] = 125 g ai/ha, 0 to 100 scale, 0 no effect, 100 complete control
[24] = 500 g ai/ha, visual injury, 0 to 100 scale (0 no effect, 100 complete control)

Cc1cccc2c1O[C@@H](C)CN2C(=O)c1cccc(-n2cnc(COC(C)C)n2)c1 [Compound 135]
90: Soybean plant response rating (soybean [10]; [23]) | Plant response rating, Foxtail, Giant (foxtail, giant [14]; [24]) | Plant response rating, Ryegrass, Italian (ryegrass, Italian [20]; 500 g ai/ha) | Plant response rating, Oat, Wild (oat, wild [21]; 500 g ai/ha)
30: Plant response rating, Soybean (soybean [1]; 500 g ai/ha) | Plant response rating, Barnyardgrass (barnyardgrass [12]; 125 g ai/ha) | Plant response rating, Wheat (wheat [13]; 500 g ai/ha) | Plant response rating, Ragweed (ragweed [16]; [24]) | Plant response rating, Pigweed, Palmer (pigweed, palmer [22]; 500 g ai/ha)
60: Plant response rating, Blackgrass (blackgrass [3]; 125 g ai/ha) | Plant response rating, Corn (corn [4]; [24]) | Plant response rating, Ryegrass, Italian (ryegrass, Italian [20]; 125 g ai/ha) | Plant response rating, Oat, Wild (oat, wild [21]; 125 g ai/ha)
0: Barnyardgrass plant response rating (barnyardgrass [2]; [23]) | Blackgrass plant response rating (blackgrass [5]; [23]) | Oat, Wild plant response rating (oat, wild [6]; [23]) | Plant response rating, Ragweed (ragweed [7]; 125 g ai/ha) | Plant response rating, Ragweed (ragweed [7]; 500 g ai/ha) | Kochia plant response rating (kochia [8]; [23]) | Ryegrass, Italian plant response rating (ryegrass, Italian [9]; [23]) | Plant response rating, Wheat (wheat [13]; 125 g ai/ha) | Horseweed plant response rating (horseweed; [23]) | Plant response rating, Horseweed (horseweed; [24]) | Ragweed plant response rating (ragweed [16]; [23]) | Plant response rating, Kochia (kochia [18]; 125 g ai/ha) | Plant response rating, Kochia (kochia [18]; 500 g ai/ha) | Plant response rating, Corn (corn [19]; 125 g ai/ha)
50: Plant response rating, Kochia (kochia [8]; [24]) | Plant response rating, Ryegrass, Italian (ryegrass, Italian [9]; [24]) | Plant response rating, Wheat (wheat [17]; [24]) | Galium plant response rating (galium; [23])
20: Plant response rating, Soybean (soybean [1]; 125 g ai/ha) | Plant response rating, Oat, Wild (oat, wild [6]; [24]) | Plant response rating, Pigweed, Palmer (pigweed, palmer [15]; [24])
70: Plant response rating, Blackgrass (blackgrass [5]; [24]) | Plant response rating, Barnyardgrass (barnyardgrass [12]; 500 g ai/ha)
10: Plant response rating, Barnyardgrass (barnyardgrass [2]; [24]) | Corn plant response rating (corn [4]; [23]) | Plant response rating, Foxtail, Giant (foxtail, giant [11]; 125 g ai/ha) | Foxtail, Giant plant response rating (foxtail, giant [14]; [23]) | Pigweed, Palmer plant response rating (pigweed, palmer [15]; [23]) | Wheat plant response rating (wheat [17]; [23]) | Plant response rating, Corn (corn [19]; 500 g ai/ha) | Plant response rating, Pigweed, Palmer (pigweed, palmer [22]; 125 g ai/ha)
100: Plant response rating, Soybean (soybean [10]; [24]) | Plant response rating, Foxtail, Giant (foxtail, giant [11]; 500 g ai/ha)
80: Plant response rating, Blackgrass (blackgrass [3]; 500 g ai/ha) | Plant response rating, Galium (galium; [24])
